Consider 63 molecules from patent US8288371B2, “Ortho pyrrolidine, benzyl-substituted heterocycle CCR1 antagonists for autoimmune diseases and inflammation” (Pharmacopeia, LLC, priority 2007, dated 2012).

pIC50: −log10 of the molar value. Where only a bound is given, the exact number is not on record here.

In this assay the target is T1, human CCR1 (Homo sapiens, UniProt P32246).
T1 sequence (P32246 1-355): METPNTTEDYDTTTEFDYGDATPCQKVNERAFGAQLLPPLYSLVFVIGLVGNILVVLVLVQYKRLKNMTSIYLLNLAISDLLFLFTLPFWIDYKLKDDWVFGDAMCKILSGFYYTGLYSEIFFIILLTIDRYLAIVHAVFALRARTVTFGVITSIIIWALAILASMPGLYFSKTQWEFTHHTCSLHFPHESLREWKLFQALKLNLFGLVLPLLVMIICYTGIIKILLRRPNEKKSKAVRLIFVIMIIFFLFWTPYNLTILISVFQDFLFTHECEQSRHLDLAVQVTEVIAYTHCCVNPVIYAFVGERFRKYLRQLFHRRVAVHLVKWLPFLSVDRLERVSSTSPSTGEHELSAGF
Kind of assay: CCR1 binding protocol (SPA, [125I]-MIP-1α displacement). As to conditions: cell membrane expressing human CCR1, 0.1 nM [125I]-MIP-1α, 4 hours at ambient temperature; read-out: Relative potency (IC50). A digest of the protocol: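 Displacement of 0.1 nM [125I]-MIP-1α (final) from membranes expressing human CCR1 was measured by scintillation proximity after 4 h at ambient temperature. Conditions: pH 7.4 Tris buffer with 0.1% BSA and MnCl, and 0.5 μg membrane per well. Compounds were tested as a 10-step ½-log series from a 10 mM DMSO stock to derive IC50.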
For the molecule `Cc1noc(C)c1NC(=O)N1CCC[C@@H]1c1nnc(C)n1Cc1ccc(Cl)nc1` [Compound 366], the pIC50 was 6.30 to 7.30.
The same measure for `Cc1nnc([C@H]2CCCN2/C(=N\C#N)N[C@H]2CCOc3cc(C(F)(F)F)ccc32)n1Cc1ccc(Cl)cc1` [Compound 260]: 6.30 to 7.30.
For the molecule `Cc1cc(C(F)(F)F)ccc1NC(=O)N1CCC[C@@H]1c1ncnn1Cc1ccc(Cl)cc1` [Compound 63], the pIC50 is over 7.30.
The figure for `O=C(NC1(c2ccc(C(F)(F)F)cc2)CC1)N1CCC[C@@H]1c1ncnn1Cc1ccc(Cl)cc1` [Compound 98] is 6.30 to 7.30; for `Cc1nnc([C@H]2CCCN2C(=O)Nc2ccc(Cl)cc2F)n1Cc1ccc(Br)cc1` [Compound 534] it is 6.30 to 7.30; for `Cc1nnc([C@H]2CCCN2C(=O)Nc2ccc(Cl)cc2S(C)(=O)=O)n1Cc1ccc(Cl)cc1` [Compound 434] it is over 7.30.
The figure for `NC(=O)c1nnc([C@H]2CCCN2C(=O)N[C@H]2CCOc3cc(C(F)(F)F)ccc32)n1Cc1ccc(Cl)cc1` [Compound 489] is 5.30 to 6.30.
Regarding `Cc1onc(-c2ccccc2)c1NC(=O)N1C[C@@H](O)C[C@@H]1c1nnc(C)n1Cc1ccc(Cl)cc1` [Compound 433], the pIC50 is over 7.30.
The same measure for `COC(=O)c1cc(C)cc(C)c1NC(=O)N1CCC[C@@H]1c1nnc(C)n1Cc1ccc(Cl)cc1` [Compound 211]: over 7.30.
Turning to `CC[C@H](NC(=O)N1CCC[C@@H]1c1nnc(C)n1Cc1ccc(Cl)cc1)c1c(C)noc1C` [Compound 214], the pIC50 is over 7.30.
The same measure for `Cc1nnc([C@H]2CC(F)CN2C(=O)N[C@H]2CCOc3cc(C(F)(F)F)ccc32)n1Cc1ccc(Cl)cc1` (stereo partly drawn) [Compound 574]: over 7.30; for `O=C(Nc1ccc2nonc2c1)N1CCC[C@@H]1c1ncnn1Cc1ccc(Cl)cc1` [Compound 71]: 6.30 to 7.30; for `Cc1nnc([C@H]2CCCN2C(=O)Nc2cccc(S(C)(=O)=O)c2)n1Cc1ccc(Cl)cc1` [Compound 334]: 5.30 to 6.30.
The same measure for `Cc1onc(-c2ccccc2)c1NC(=O)N1CCC[C@@H]1c1nnc(C)n1Cc1ccc(Cl)cc1` [Compound 126]: over 7.30; for `O=C(Nc1ccc(SC(F)(F)F)cc1)N1CCC[C@@H]1c1ncnn1Cc1ccc(Cl)cc1` [Compound 74]: 6.30 to 7.30.
For the molecule `Cc1nnc([C@H]2CCCN2C(=O)Nc2ccc(Cl)cc2C(F)(F)F)n1Cc1ccc(Cl)cc1` [Compound 405], the pIC50 is over 7.30.
Consider `CCc1noc(CC)c1NC(=O)N1CCC[C@@H]1c1nnc(C)n1Cc1ccc(Cl)cc1` [Compound 287], for which the pIC50 is over 7.30.
The same measure for `Cc1nnc([C@H]2CCCN2C(=O)Oc2ccc(Cl)cc2)n1Cc1ccc(Cl)cc1` [Compound 175]: 5.30 to 6.30.
The same measure for `Cc1nnc([C@H]2CCCN2C(=O)Nc2c(Cl)nc(N)nc2Cl)n1Cc1ccc(Cl)cc1` [Compound 192]: over 7.30; for `CSc1ccc(NC(=O)N2CCC[C@@H]2c2ncnn2Cc2ccc(Cl)cc2)cc1` [Compound 67]: 6.30 to 7.30; for `CN1C(=O)COc2ccc(NC(=O)N3CCC[C@@H]3c3oncc3Cc3ccc(Cl)cc3)cc21` [Compound 3]: 6.30 to 7.30.
The same measure for `CCc1nnc([C@H]2CCCN2C(=O)Nc2c(C)noc2C)n1Cc1ccc(Cl)cc1` [Compound 582]: 6.30 to 7.30; for `Cc1noc(C)c1NC(=O)N1CC2CC2[C@@H]1c1nnc(C)n1Cc1ccc(Cl)cc1` (stereo partly drawn) [Compound 564]: 6.30 to 7.30.
In the case of `Cc1nnc([C@H]2CCCN2C(=O)N[C@H](C)c2ccc(Cl)cc2)n1Cc1ccc(Cl)cc1` [Compound 180], the pIC50 was over 7.30.
The same measure for `Cc1cc(NC(=O)N2CCC[C@@H]2c2nnc(C)n2Cc2ccc(Cl)cc2)c(F)cc1Cl` [Compound 426]: over 7.30; for `CS(=O)(=O)c1ccc(NC(=O)N2CCC[C@@H]2c2ncnn2Cc2ccc(Cl)cc2)cc1` [Compound 76]: 6.30 to 7.30; for `COC1C[C@H](c2nnc(C)n2Cc2ccc(Cl)cc2)N(C(=O)Nc2ccc(C(F)(F)F)nc2C)C1` (stereo partly drawn) [Compound 542]: 6.30 to 7.30.
The figure for `Cc1cccc(C(=O)O)c1NC(=O)N1CCC[C@@H]1c1nnc(C)n1Cc1ccc(Cl)cc1` [Compound 251] is 5.30 to 6.30.
With `Cc1nnc([C@H]2CCCN2C(=O)NC2(c3cccc(F)c3)CC2)n1Cc1ccc(Cl)cc1` [Compound 266], the pIC50 was over 7.30.
The figure for `CNC(=O)c1ccc(C)c(NC(=O)N2CCC[C@@H]2c2nnc(C)n2Cc2ccc(Cl)cc2)c1` [Compound 216] is over 7.30; for `Cc1nnc([C@H]2CCCN2C(=O)NC(C)(C)c2ccc(C(F)(F)F)cc2)n1Cc1ccc(Cl)cc1` [Compound 220] it is over 7.30.
The same measure for `CC[C@H](NC(=O)N1CCC[C@@H]1c1nnc(C)n1Cc1ccc(F)cc1)c1ccc(C(F)(F)F)nc1` [Compound 560]: over 7.30.
The same measure for `Cc1nnc([C@H]2CCCN2C(=O)NC2CC(C)(C)Oc3cc(C(F)(F)F)ccc32)n1Cc1ccc(Cl)cc1` (stereo partly drawn) [Compound 272]: 6.30 to 7.30; for `Cc1noc(C)c1NC(=O)N1CCC[C@@H]1c1nnc(C)n1[C@@H](C)c1ccc(Cl)cc1` [Compound 400]: 5.30 to 6.30; for `Cc1nnc([C@H]2CCCN2c2c(Nc3ccc(F)cc3F)c(=O)c2=O)n1Cc1ccc(Cl)cc1` [Compound 579]: 5.30 to 6.30.
With `Cc1nnc([C@H]2CCCN2C(=O)Cc2ccc(F)c(C(F)(F)F)c2)n1Cc1ccc(Cl)cc1` [Compound 504], the pIC50 was 6.30 to 7.30.
As for `Cc1ccc(NC(=O)N2CCC[C@@H]2c2nnc(C)n2Cc2ccc(Cl)cc2)c(C(N)=O)c1` [Compound 244], the pIC50 is 6.30 to 7.30.
The same measure for `Cc1nnc([C@H]2C[C@H](O)CN2C(=O)Nc2ccc(C(F)(F)F)cc2)n1Cc1ccc(Cl)cc1` [Compound 388]: 6.30 to 7.30.
For `Cc1nnc([C@H]2CCCN2C(=S)Nc2ccc(Cl)cc2F)n1Cc1ccc(Cl)cc1` [Compound 606], the pIC50 is over 7.30.
The same measure for `Cc1ncncc1NC(=O)N1CCC[C@@H]1c1nnc(C)n1Cc1ccc(Cl)cc1` [Compound 348]: over 7.30; for `Cc1nnc([C@H]2CCCN2C(=O)Nc2ccc3nonc3c2)n1Cc1ccc(Cl)cc1` [Compound 321]: 6.30 to 7.30.
The figure for `Cc1nnc([C@H]2CCCN2C(=O)Nc2ccc3c(c2)N(C)C(=O)CO3)n1Cc1ccc(Cl)cc1` [Compound 137] is 6.30 to 7.30; for `Cc1nnc([C@H]2CCCN2C(=O)NC2(c3cccc(C(F)(F)F)c3)CC2)n1Cc1ccc(Cl)cc1` [Compound 265] it is over 7.30; for `Cc1nnc([C@H]2CCCN2C(=O)N[C@@H](C)c2ccc(Cl)cc2)n1Cc1ccc(Cl)cc1` [Compound 170] it is over 7.30.
The figure for `Cc1nnc([C@H]2CCCN2C(=O)NC2CCOc3cc(C#N)ccc32)n1Cc1ccc(Cl)cc1` (stereo partly drawn) [Compound 134] is over 7.30; for `Cc1cc(C)c(S(=O)(=O)N(C)C)cc1NC(=O)N1CCC[C@@H]1c1nnc(C)n1Cc1ccc(Cl)cc1` [Compound 483] it is over 7.30; for `Cc1noc(-c2ccccc2)c1NC(=O)N1CCC[C@@H]1c1nnnn1Cc1ccc(Cl)cc1` [Compound 51] it is over 7.30.
Turning to `Cc1cc(C)c(S(C)(=O)=O)cc1NC(=O)N1CCC[C@@H]1c1nnc(C)n1Cc1ccc(Cl)cc1` [Compound 361], the pIC50 is over 7.30.
The figure for `Cc1nnc([C@H]2CCCN2C(=O)Nc2ccc(C(C)(C)C)cc2)n1Cc1ccc(Cl)cc1` [Compound 133] is over 7.30; for `Cc1nc(C(F)(F)F)ccc1NC(=O)N1CCC[C@@H]1c1nnc(Cl)n1Cc1ccc(Cl)cc1` [Compound 549] it is over 7.30; for `Cc1noc(C)c1CC(=O)N1CCC[C@@H]1c1nncn1Cc1ccc(Cl)cc1` [Compound 629] it is 6.30 to 7.30.
The same measure for `O=C(Nc1ccc(Cl)cc1F)N1CCC[C@@H]1c1ncnn1Cc1ccc(Cl)cc1` [Compound 68]: 6.30 to 7.30.
The figure for `CC[C@H](Nc1c(N2CCC[C@@H]2c2nnc(C)n2Cc2ccc(Cl)cc2)c(=O)c1=O)c1ccc(C(F)(F)F)cc1` [Compound 589] is 6.30 to 7.30.
With `Cc1cc(C(F)(F)F)cc(C)c1NC(=O)N1CCC[C@@H]1c1ncnn1Cc1ccc(Cl)cc1` [Compound 58], the pIC50 was over 7.30.
For the molecule `CCc1cc(Cn2c(C)nnc2[C@H]2CCCN2C(=O)Nc2ccc(Cl)cc2F)ccc1Cl` [Compound 635], the pIC50 was 6.30 to 7.30.
As to `Cc1noc(C)c1Nc1c(N2CCC[C@@H]2c2nnc(C)n2Cc2ccc(Cl)cc2)c(=O)c1=O` [Compound 555], the pIC50 was 5.30 to 6.30.
The figure for `Cc1nnc([C@H]2CCCN2C(=O)Nc2ccc3c(c2)CC(C)O3)n1Cc1ccc(Cl)cc1` (stereo partly drawn) [Compound 274] is 6.30 to 7.30.
The figure for `Cc1nnc([C@H]2C[C@@H](O)CN2C(=O)Nc2ccc(Cl)nc2Cl)n1Cc1ccc(Cl)cc1` [Compound 498] is 6.30 to 7.30.
The same measure for `Cc1cccc(C(N)=O)c1NC(=O)N1CCC[C@@H]1c1nnc(C)n1Cc1ccc(Cl)cc1` [Compound 219]: over 7.30; for `Cc1nnc([C@H]2CCCN2C(=O)Nc2ccc(C(F)(F)F)cc2)n1Cc1ccc(Cl)cc1` [Compound 112]: 6.30 to 7.30; for `O=C(N[C@H]1CCCc2ccccc21)N1CCC[C@@H]1c1nnnn1Cc1ccc(Cl)cc1` [Compound 48]: over 7.30.
In the case of `CC[C@@H](NC(=O)N1CCC[C@@H]1c1nnc(C)n1Cc1ccc(Cl)cc1)c1ccccc1` [Compound 285], the pIC50 was over 7.30.
The same measure for `Cc1nnc([C@H]2CCCN2C(=O)Nc2ccc(OC3CCOCC3)nc2)n1Cc1ccc(Cl)cc1` [Compound 551]: 5.30 to 6.30.
